Test results taken from patent US5424329A, “Indole-2-carboxamides as inhibitors of cell adhesion” (Warner-Lambert Company, priority 1993, dated 1995).
Where a name gives a salt, the structure may show the parent alone.

Tested on: human neutrophil adhesion to TNF-α, IL-1α, and LPS-stimulated human umbilical vein endothelial cells (HUVEC)
Experiment: Inhibition of human neutrophil adhesion to TNF-α, IL-1α, and LPS-stimulated human umbilical vein endothelial cells (chromium assay)
Format: cell-based
Conditions: not given
Excerpt: METHOD FOR DETERMINING THE INHIBITION OF HUMAN NEUTROPHIL ADHESION TO TNF-α, IL-1α, AND LPS-STIMULATED HUMAN UMBILICAL VEIN ENDOTHELIAL
CELLS BY 3-SUBSTITUTED-INDOLE-2-CARBOXAMIDES
Neutrophils were isolated from anticoagulant-treated venous blood obtained from healthy human volunteers according to the method of Ferrante and Thong (J. Immunol. Methods 1978;24:389-393). The cell preparations consisted of greater than 98% neutrophils.
Second passage human umbilical vein endothelial cells (HUVEC) (Clonetics, San Diego, Calif.) were seeded into Falcon 24-well cell culture plates (Becton Dickinson, Lincoln Park, N.J.) at approximately 2×10^4 cells per well. The cells were grown to confluent monolayers in endothelial basal medium (EBM, Clonetics) supplemented with 5% fetal calf serum (Hyclone Laboratories, Logan, Utah), 10 ng/mL EGF, 1μg/mL hydrocortisone, 0.4% bovine brain extract (Clonetics) in 5% CO2 at 37° C. […]
Stimulation of HUVEC with tumor necrosis factor-α (TNF-α) (Genzyme, Cambridge, Mass.), interleukin (IL-1α) (Genzyme) or E. coli 0111:B4 lipopolysaccharide (LPS) (Sigma) in the presence or absence of drug was initiated 4 hours prior to the addition of neutrophils. […] Lysates were collected and the radioactivity in each well was determined by gamma ray spectroscopy.

Row | Compound | inhibition at 100 µM [%]
1 | COc1ccc2c(c1)c(OC(C)C)c(C(N)=O)n2-c1ccccc1 [Example 16, 5-Methoxy-3-(1-methylethoxy)-1-phenyl-1H-indole-2-carboxamide] | 35

Tested on: human neutrophil adhesion to TNF-α stimulated human umbilical vein endothelial cells (HUVEC)
Experiment: Inhibition of human neutrophil adhesion to TNF-stimulated human umbilical vein endothelial cells (modified method, calcein-AM fluorescence)
Format: cell-based
Conditions: 4 hours, IC50 from 33.3, 10.0, 3.3 and 1.0 μM
Method: MODIFIED METHOD FOR DETERMINING THE INHIBITION OF HUMAN NEUTROPHIL ADHESION TO TNF-α, IL-1α, AND LPS STIMULATED
HI/MAN UMBILICAL VEIN ENDOTHELIAL CELLS BY
3-SUBSTITUTED-INDOLE-2-CARBOXAMIDES
Second passage HUVEC (Clonetics Corporation, San Diego, Calif., CC-2617) were seeded into Corning (Corning glass works, Corning, N.Y.) 96-well cell culture plates at approximately 5×10^3 cells/well and grown to confluency in supplemented endothelial basal medium (EBM, MCDB-131, Clonetics, 10 ng/mL EGF, 1 μg/mL hydrocortisone, 0.4% bovine brain extract, 5% Fetal Bovine Serum). One day prior to running the assay, typically 3 days postseeding, the cultures were re-fed with 0.2 mL/well supplemented EBM (S-EBM).
Preparation of Test Compounds
Test compounds were prepared as 10 mL stock solutions at a concentration of 1.0 mM. The compounds were initially solubilized in 0.1 mL DMSO followed by the addition of 9.9 mL S-EBM. The drug preparations were then diluted in one step to a concentration of 66.6 μM. Solubilizations and dilutions were performed in polystyrene containers.
Isolation of Human Neutrophils
Human neutrophils were isolated from anticoagulant-treated venous blood obtained from healthy volunteers according to the method of Ferrante and Thong, J. Immunol. Methods 1978;24:389-393. The cell preparations consisted of greater than 98% neutrophils.
Recombinant human tumor necrosis factor-α (TNF, Genzyme, Boston, Mass., code TNF-H) was prepared at 400 U/mL in S-EBM. Stock TNF was prepared to 20,000 U/mL in Delbecco's phosphate buffered saline (PBS, Gibco, Grand Island, N.Y.) plus 0.1% BSA and stored at -70° C. HUVEC were washed one time with 0.2 mL warm unsupplemented EBM and then stimulated for 4 hours at 37° C. with 200 U/mL TNF in the presence of 33.3 μM test compound. This was accomplished by adding 0.1 mL of 400 U/mL TNF and 0.1 mL 66.6 μM test compound. These additions were done slowly as to not disrupt the HUVEC monolayer. Each compound was tested in six wells. Unstimulated (vehicle control) and TNF-stimulated without test compound treatments were also run in each plate.
One hour prior to adding the neutrophils to the HUVEC, neutrophils (5×10^6 /mL) were labeled for 30 minutes at 37° C. with 5 μM calcein-AM (Molecular Probes, Eugene, Oreg.) in Hanks' balanced salt solution plus 0.45% BSA. Stock calcein was prepared to 5 mM in anhydrous DMSO and stored desiccated at -20° C. At the end of the incubation the cells were washed two times in cold HBSS and resuspended to a final concentration of 1×10^6 cells/mL in unsupplemented EBM.
Addition of Neutrophils to HUVEC
At the end of the 4-hour stimulation and immediately prior to the addition of the neutrophils to the HUVEC monolayer, the plates were washed with 0.2 mL warm unsupplemented EBM to remove TNF and drug. Neutrophils (1×10^5 cells) were slowly added to each of the treated wells and incubated for 30 minutes at 37° C. At the end of the incubation the plates were washed two times with 0.2 mL warm unsupplemented EBM followed by a final addition of 0.1 mL for plate scanning.
Determination of Relative Fluorescence
The relative fluorescence was determined using a Millipore Cytofluor 2300 system (excitation=480, emission=530, sensitivity=4). Each file was saved on disk as a comma separated value (.CSV) file for import into a spreadsheet.
Results were expressed as means of percent inhibition of TNF-stimulated adherence. A Quattro Pro (Borland, Scotts Valley, Calif.) spreadsheet has been programmed to accept the raw data and perform all necessary calculations. [formula]
Linear regression analysis of the means of the inhibition values were used to determine the IC50.

Row | Compound | IC50 [µM]
2 | COc1ccc2c(c1)c(OC(C)C)c(C(N)=O)n2C [Example 1, 5-Methoxy-1-methyl-3-(1-methylethoxy)-1H-indole-2-carboxamide] | 10
3 | CC(C)Oc1c(C(N)=O)n(C)c2ccc(O)cc12 [Example 15, 5-Hydroxy-1-methyl-3-(1-methylethoxy)-1H-indole-2-carboxamide] | 7
4 | COc1ccc2[nH]c(C(N)=O)c(OC(C)C)c2c1 [Example 18, 5-Methoxy-3-(1-methylethoxy)-1H-indole-2-carboxamide] | 8
5 | COc1ccc2c(c1)c(SC(C)C)c(C(N)=O)n2C [Example 26, 5-Methoxy-1-methyl-3-[(1-methylethyl)thio]-1H-indole-2-carboxamide] | 29
6 | CC(C)Sc1c(C(N)=O)n(C)c2ccc(O)cc12 [Example 29, 5-Hydroxy-1-methyl-3-[(1-methylethyl)thio]-1H-indole-2-carboxamide] | 43
7 | COCn1c(C(N)=O)c(OC(C)C)c2cc(OC)ccc21 [Example 30, 5-Methoxy-1-methoxymethyl-3-(1-methylethoxy)-1H-indole-2-carboxamide] | 34

Same assay, conditions: @ 33 μM

Row | Compound | inhibition at 33 µM [%]
8 | COc1ccc2c(c1)c(SC)c(C(N)=O)n2C [Example 6, 5-Methoxy-1-methyl-3-(methylthio)-1H-indole-2-carboxamide] | 72
9 | CCOc1c(C(N)=O)n(-c2ccccc2)c2ccc(OC)cc12 [Example 19, 3-Ethoxy-5-methoxy-1-phenyl-1H-indole-2-carboxamide] | 13
10 | CCN(CC)c1c(C(N)=O)[nH]c2ccc(OC)cc12 [Example 20, 3-(Diethylamino)-5-methoxy-1H-indole-2-carboxamide, monohydrochloride] | 27
11 | CC(C)Sc1c(C(N)=O)n(C)c2ccc(OCc3ccccc3)cc12 [Example 23, 1-Methyl-3-[(1-methylethyl)thio]-5-(phenylmethoxy)-1H-indole-2-carboxamide] | 15

Tested on: activation of HIV-1 in OM-10.1 cells
Experiment: not given
Conditions: poster NCDDG/AIDS 1991; cited from earlier work

Row | Compound | inhibition of the activation of HIV-1
12 | Cc1cn([C@H]2C[C@H](F)[C@@H](CO)O2)c(=O)[nH]c1=O [3'-fluoro-3'-deoxythymidine (FLT), 3'-fluoro-3'-deoxythymidine] | modest inhibitors
13 | CC(=O)N(O)CCCCCNC(=O)CCC(=O)N(O)CCCCCNC(=O)CCC(=O)N(O)CCCCCN [desferrioxamine] | modest inhibitors
14 | interferon Y: interferon Y | modest inhibitors

Tested on: HIV activation in OM-10.1 cells
Experiment: Inhibition of activation of latent HIV in OM-10.1 cells
Format: cell-based, HIV-1
Conditions: Human immunodeficiency virus 1, chronically HIV-infected promyelocytic clone
Excerpt: The cellular pathways involved in mediating the activating signal from the plasma membrane to the integrated virus, resulting in HIV-1 expression, are much less clear. Recently, the development of a reliable and simple system for evaluating compounds that could prevent activation of latent HIV was reported at the National […] (NCDDG)/AIDS by P. Feorino, S. T. Butera, T. M. Folks, and R. F. Schinazi, Nov. 3-7, 1991. The assay system employed the OM-10.1 cell line, a unique chronically-infected promyelocytic clone which remains CD4+ until HIV-1 activation with tumor necrosis factor-α. The expression of CD4+ on the cell surface and the activity of reverse transcriptase are used as markers for quantitating viral expression. Alternatively, other HIV markers, such as protease activity, which are known to those of skill in the art can be used. OM-10.1 cells remain CD4^+ until viral activation and respond to tumor necrosis factor induction, and therefore, these cultures are used to conveniently and rapidly examine pharmacologics for an ability to prevent CD4^+ down modulation (decrease in expression of CD4^+ on the cell surface) and HIV-1 expression.

Row | Compound | IC50 [µM]
15 | COc1ccc2c(c1)c(OC(C)C)c(C(N)=O)n2C [Example 1, 5-Methoxy-1-methyl-3-(1-methylethoxy)-1H-indole-2-carboxamide] | 0.8
